Measurements published in patent US5252482A, “Precursor of a C-terminal amidated calcitonin” (Suntory Limited, priority 1982, dated 1993).
Bridge positions count the residues as written; N and C are the ends. Peptide text beside a SMILES is read from it.

Tested on: Male Wistar strain rats
Assay: serum calcium lowering effect in rats
Format: in vivo, rat
Conditions: for Change in serum Ca level: 4.5 μg/rat subcutaneously, mean of 4 rats
Protocol: The biological activities of HPCT and HPCT Cp(1-3S purified by the above-mentioned procedure were assayed using the serum calcium lowering effect in rats as an indicator.
Male Wistar strain rats weighing 300 to 350 grams were fasted overnight and used. Each animal was secured in supine position and under ether anesthesia, a polyethylene tube (Intramedic® PE-50, Clay Adams) filled with heparin sodium injection J. P. (Japan-Upjohn) was inserted into the femoral artery of the right hind leg. The rat was fixed in a Boleman cage, and 30 minutes after awakening of the animal, 0.5 ml of the blood was withdrawn through the above polyethylene tube inserted into the femoral artery into a polyethylene centrifugal tube containing 50 units of heparin sodium. Immediately thereafter 0.2 ml of the under-mentioned physiological saline, HPCT. HPCT.Cp(1-33) or swine calcitonin solution was administered subcutaneously at the back of the animal. Then, 1, 2, 4 and 6 hours after the administration, 0.5 ml each of the blood was taken through the above-mentioned polyethylene tube. The blood thus taken was promptly centrifuged on an Eppendorf microcentrifuge (Eppendorf 5414) at 13,000 r.p.m. for 1 minute and the supernatant was used as serum fraction.
The blood calcium level was measured by the o-cresolphthalein complexon method using a commercial calcium assay kit RM117-K (Ca SET) (Yatron). Fifty μl of the serum was taken in a test tube and stirred with 0.5 ml of the color reagent containing o-cresolphthalein complexon and 8-hydroxyquinoline (RM117-2). Then, 5.0 ml of monoethanolamine borate buffer (RM117-1) was added and stirred. Within 90 minutes thereafter, the absorbance was measured with a self-recording spectrophotometer (Hitachi 320) at the wavelength of 575 mu. The concentration of calcium was calculated from this absorbance value.
The methods used in the preparation of the physiological saline solution, HPCT solution, HPCT. Cp(1-3S) solution and swine calcitonin solution employed are as follows.
a) Physiological saline solution: Bovine serum albumin (Sigma®) was dissolved in physiological saline J. P. (Ohtsuka Pharmaceutical Co.) at room temperature to the albumin concentration of 0.1%.
b) HPCT solution: HPCT was diluted with the above-mentioned physiological saline solution containing 0.1% of albumin to the HPCT concentration of 4.5 μg/0.2 ml.
c) HPCT Cp(1-33) solution: HPCT Cp(1-33) was diluted with the above-mentioned physiological saline solution containing 0.1% of albumine to the HPCT Cp(1-33) concentration of 20 μg/0.2 ml.
d) Swine calcitonin solution: Calcital® for Injection (Yamanouchi Pharmaceutical Co.) containing 160 I.U. of calcitonin per vial was dissolved in 40 ml of a vehicle containing 16% of purified gelatin and 0.5% phenol J. P. and the solution was diluted with the above-mentioned physiological saline solution containing 0.1% of albumin. This dilution contained 0.2 or 1 I.U. of swine calcitonin per 0.2 ml.

Q: What does the source list for `CC[C@H](C)[C@H](NC(=O)[C@H](C)NC(=O)[C@@H](NC(=O)[C@H](CCC(N)=O)NC(=O)[C@@H]1CCCN1C(=O)[C@H](Cc1ccccc1)NC(=O)[C@@H](NC(=O)[C@H](Cc1c[nH]cn1)NC(=O)[C@H](Cc1ccccc1)NC(=O)[C@H](CCCCN)NC(=O)[C@H](CC(N)=O)NC(=O)[C@H](Cc1ccccc1)NC(=O)[C@H](CC(=O)O)NC(=O)[C@H](CCC(N)=O)NC(=O)[C@@H](NC(=O)[C@H](Cc1ccc(O)cc1)NC(=O)[C@@H](NC(=O)CNC(=O)[C@H](CC(C)C)NC(=O)[C@@H](NC(=O)[C@@H]1CSSC[C@H](N)C(=O)NCC(=O)N[C@@H](CC(N)=O)C(=O)N[C@@H](CC(C)C)C(=O)N[C@@H](CO)C(=O)N[C@@H]([C@@H](C)O)C(=O)N1)C(C)C)[C@@H](C)O)[C@@H](C)O)[C@@H](C)O)[C@@H](C)O)C(=O)NCC(=O)N[C@H](C(=O)NCC(=O)N[C@@H](C)C(=O)N1CCC[C@H]1C(=O)NCC(=O)N[C@@H](CCCCN)C(=O)N[C@@H](CCCCN)C(=O)N[C@@H](CCCNC(=N)N)C(=O)O)C(C)C` [HPCT] (H-CGNLSTCVLGTYTQDFNKFHTFPQTAIGVGAPGKKR-OH; disulfide 1-7)?
A: activity equivalent in swine calcitonin (4.5 μg of HPCT, rat, subcutaneous, serum calcium time course): 0.2 I.U.; calcitonin activity (calcium level in the rat blood): markedly reducing the calcium level in the rat blood; physiological activity compared with swine calcitonin (rat serum calcium, Table 2, not compared in an equal amount): stronger physiological activity as compared with swine calcitonin; serum calcium level (rat, 4.5 μg subcutaneously, 1 and 2 hours after the administration): dropped with statistical significance; Change in serum Ca level (rat, 1 hour after administration): -0.85 mg/dL; Change in serum Ca level (rat, 2 hours): -0.64 mg/dL; Change in serum Ca level (rat, 3 hours): -0.47 mg/dL; Change in serum Ca level (rat, 4 hours): -0.63 mg/dL
